For test [1], the system named is normal human neonatal foreskin epidermal keratinocytes (NHEK-F). Nature of the test: Cell proliferation inhibition test. Type of test: cell-based. The note with it: Keratinocyte, 72 h, NHEK-F cells, three days incubation, ATPlite or CellTiterGlo, read-out: IC50 (concentration of the compound at which the cell count is reduced by 50%). The method, boiled down:
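IC50 is the compound level halving cell count relative to untreated wells, with counts from ATP-based luminescence (ATPlite or CellTiterGlo). Readout followed 3 days of compound exposure of overnight-attached neonatal foreskin keratinocytes (2×10^3/well, Humedia-EG2 medium).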
(In general: In ATP-based viability assays light output follows the ATP content of the culture.)

Test [2] concerns TPA-induced ear edema and acanthosis in Balb/c mice. Nature of the test: Mouse TPA-induced ear-swelling model. Type of test: in vivo. The note with it: topical, 240 h, 1% w/v solution, 20 μL applied to ear once a day from day 0 to day 9, female Balb/c mice, read-out: Inhibition rate of change in ear thickness on day 10. The protocol:
Seven-week-old female Balb/c mice (Charles River Laboratories Japan) were used. 20 μL of a 20 ng/mL solution of TPA (Wako Pure Chemical Industries, 162-23591) dissolved in 5% DMSO/acetone was applied to the outer side of the mouse ear on day 0, day 2, day 4, day 7 and day 9 to induce ear edema and acanthosis. The test compound was dissolved in a 5% DMSO/acetone solution (concentration: 1% w/v) and 20 μL of the resulting solution was applied to the outer side of the ear once a day from day 0 to day 9. For the control group, a 5% DMSO/acetone solution was similarly applied. The TPA solution and the test compound solution were mixed and applied on the days for TPA application (day 0, day 2, day 4, day 7 and day 9). The ear thickness was chronologically measured on days 0-4 and days 7-10 using a micrometer (Mitutoyo, MDC-25MJT). The change in ear thickness and the inhibition rate were determined by the following formulas. Change in ear thickness=(ear thickness measured on day 10)−(ear thickness measured on day 0 before TPA application) Inhibition rate (%)=100−(change in ear thickness for test compound group/change in ear thickness for control group)×100

Each structure is given as a SMILES string.

With `O=C(O)c1cc(C2CC2)cnc1Nc1ccc2c(ccn2Cc2cccc(F)c2)c1` [Example 239, 5-cyclopropyl-2-((1-(3-fluorobenzyl)-1H-indol-5-yl)amino)nicotinic acid], the IC50 in test [1] was at most 10 nM. The inhibition in vivo at 1 % strength in test [2] was at least 20%.
As to `O=C(O)c1cc(C2CC2)cnc1Nc1ccc2c(ccn2Cc2cc(F)cc(F)c2)c1` [Example 497, 5-cyclopropyl-2-((1-(3,5-difluorobenzyl)-1H-indol-5-yl)amino)nicotinic acid], the IC50 in test [1] is at most 10 nM. The inhibition in vivo at 1 % strength in test [2] was at least 20%.
In the same order, the values of `Cn1cc(-c2ccccc2F)c2cc(Nc3ncc(C4CC4)cc3C(=O)O)ccc21` [Example 557, 5-cyclopropyl-2-((3-(2-fluorophenyl)-1-methyl-1H-indol-5-yl)amino)nicotinic acid] are 10 to 100 nM and at least 20%.
As for `Cc1ccc(Cn2ccc3cc(Nc4ncc(C5CC5)cc4C(=O)O)ccc32)cc1` [Example 457, 5-cyclopropyl-2-((1-(4-methylbenzyl)-1H-indol-5-yl)amino)nicotinic acid], the IC50 in test [1] was at most 10 nM. Also, the inhibition in vivo at 1 % strength in test [2] is at least 20%.
Regarding `CCn1ccc2cc(Nc3ncc(C4CC4)cc3C(=O)O)cc(CCCOC)c21` [Example 598, 5-cyclopropyl-2-((1-ethyl-7-(3-methoxypropyl)-1H-indol-5-yl)amino)nicotinic acid], the IC50 in test [1] fell in the range of 10 to 100 nM. For the same compound, the inhibition in vivo at 1 % strength in test [2] was at least 20%.
For `CCCCCn1ccc2cc(Nc3ncc(C4CC4)cc3C(=O)O)ccc21` [Example 638, 5-cyclopropyl-2-((1-pentyl-1H-indol-5-yl)amino)nicotinic acid] the same measures were 10 to 100 nM and at least 20%.
On to `O=C(O)c1cc(C2CC2)cnc1Nc1ccc2c(cnn2CC2CCCCC2)c1` [Example 543, 2-((1-(cyclohexylmethyl)-1H-indazol-5-yl)amino)-5-cyclopropylnicotinic acid], for which the IC50 in test [1] is at most 10 nM. In addition, the inhibition in vivo at 1 % strength in test [2] was at least 20%.
As for `Cn1ccc2cc(Nc3ncc(C4CC4)cc3C(=O)O)cc(-c3ccccc3C#N)c21` [Example 482, 2-((7-(2-cyanophenyl)-1-methyl-1H-indol-5-yl)amino)-5-cyclopropylnicotinic acid], the IC50 in test [1] is at most 10 nM. The inhibition in vivo at 1 % strength in test [2] was at least 20%.
In the same order, the values of `O=C(O)c1cc(C2CC2)cnc1Nc1ccc2ccn(CC3CCCCC3)c2c1` [Example 523, 2-((1-(cyclohexylmethyl)-1H-indol-6-yl)amino)-5-cyclopropylnicotinic acid] are at most 10 nM and at least 20%.
In the same order, the values of `CC(C)Cn1ccc2cc(Nc3ncc(C4CC4)cc3C(=O)O)cc(-c3ccccc3)c21` [Example 224, 5-cyclopropyl-2-((1-isobutyl-7-phenyl-1H-indol-5-0)amino)nicotinic acid] are at most 10 nM and at least 20%.
For `CC(C)c1cc(Nc2ncc(C3CC3)cc2C(=O)O)cc2ccn(C)c12` [Example 411, 5-cyclopropyl-2-((7-isopropyl-1-methyl-1H-indol-5-yl)amino)nicotinic acid] the same measures were 10 to 100 nM and at least 20%.
For `Cc1cc2c(ccn2Cc2ccccc2)cc1Nc1ncc(C2CC2)cc1C(=O)O` [Example 585, 2-((1-benzyl-6-methyl-1H-indol-5-yl)amino)-5-cyclopropylnicotinic acid], the IC50 in test [1] is at most 10 nM. Moreover, in test [2], the inhibition in vivo at 1 % strength is at least 20%.
In the same order, the values of `CCCCn1ccc2cc(Nc3ncc(C4CC4)cc3C(=O)O)ccc21` [Example 637, 2-((1-butyl-1H-indol-5-yl)amino)-5-cyclopropylnicotinic acid] are 10 to 100 nM and at least 20%.
For `Cc1ccc(Nc2ccc3c(ccn3Cc3ccccc3)c2)c(C(=O)O)c1` [Example 206, 2-((1-benzyl-1H-indol-5-yl)amino)-5-methylbenzoic acid] the same measures were at most 10 nM and at least 20%.
Take `COc1cccc(Cn2ccc3cc(Nc4ncc(C5CC5)cc4C(=O)O)ccc32)c1` [Example 237, 5-cyclopropyl-2-((1-(3-methoxybenzyl)-1H-indol-5-yl)amino)nicotinic acid]: the IC50 in test [1] is 10 to 100 nM. Besides, the inhibition in vivo at 1 % strength in test [2] was at least 20%.
Take `O=C(O)c1cc(C2CC2)cnc1Nc1ccc2c(ccn2-c2ccc(F)cc2)c1` [Example 233, 5-cyclopropyl-2-((1-(4-fluorophenyl)-1H-indol-5-yl)amino)nicotinic acid]: the IC50 in test [1] is at most 10 nM. For the same compound, the inhibition in vivo at 1 % strength in test [2] was at least 20%.
In the case of `Cc1cccc(Cn2ccc3cc(Nc4ncc(C5CC5)cc4C(=O)O)ccc32)c1` [Example 456, 5-cyclopropyl-2-((1-(3-methylbenzyl)-1H-indol-5-yl)amino)nicotinic acid], the IC50 in test [1] was at most 10 nM. In addition, the inhibition in vivo at 1 % strength in test [2] is at least 20%.
For `Cc1ccccc1Cn1ccc2cc(Nc3ncc(C4CC4)cc3C(=O)O)ccc21` [Example 455, 5-cyclopropyl-2-((1-(2-methylbenzyl)-1H-indol-5-yl)amino)nicotinic acid] the same measures were at most 10 nM and at least 20%.
In the case of `O=C(O)c1cc(C2CC2)cnc1Nc1ccc2c(ccn2Cc2ccc(F)cc2F)c1` [Example 633, 5-cyclopropyl-2-((1-(2,4-difluorobenzyl)-1H-indol-5-yl)amino)nicotinic acid], the IC50 in test [1] was at most 10 nM. The inhibition in vivo at 1 % strength in test [2] was at least 20%.
In the same order, the values of `O=C(O)c1cc(C2CC2)cnc1Nc1ccc2c(ccn2Cc2ccc(F)c(F)c2)c1` [Example 635, 5-cyclopropyl-2-((1-(3,4-difluorobenzyl)-1H-indol-5-yl)amino)nicotinic acid] are at most 10 nM and at least 20%.
In the same order, the values of `CCC(CC)Cn1ccc2cc(Nc3ncc(C4CC4)cc3C(=O)O)ccc21` [Example 632, 5-cyclopropyl-2-((1-(2-ethylbutyl)-1H-indol-5-yl)amino)nicotinic acid] are at most 10 nM and at least 20%.
For `CC(C)Cn1ccc2cc(Nc3ncc(C4CC4)cc3C(=O)O)ccc21` [Example 126, 2-((1-isobutyl-1H-indol-5-yl)amino)-5-cyclopropylnicotinic acid] the same measures were at most 10 nM and at least 20%.
For the compound `O=C(O)c1cc(C2CC2)cnc1Nc1ccc2c(ccn2CC2CCCCC2)c1` [Example 130, 2-((1-(cyclohexylmethyl)-1H-indol-5-yl)amino)-5-cyclopropylnicotinic acid], in test [1], the IC50 was at most 10 nM. The inhibition in vivo at 1 % strength in test [2] is at least 20%.
For `CCn1ccc2cc(Nc3ncc(C4CC4)cc3C(=O)O)cc(-c3ccccc3)c21` [Example 597, 5-cyclopropyl-2-((1-ethyl-7-phenyl-1H-indol-5-yl)amino)nicotinic acid] the same measures were at most 10 nM and at least 20%.
Take `Cn1ccc2cc(Nc3ncc(C4CC4)cc3C(=O)O)cc(-c3cccc(-c4ccccc4)c3)c21` [Example 189, 2-((7-([1,1′-biphenyl]-3-yl)-1-methyl-1H-indol-5-yl)amino)-5-cyclopropylnicotinic acid]: in test [1], the IC50 is at most 10 nM. Further, the inhibition in vivo at 1 % strength in test [2] was at least 20%.
For `Cn1ccc2cc(Nc3ncc(C4CC4)cc3C(=O)O)cc(CCC(C)(C)C)c21` [Example 595, 5-Cyclopropyl-2-((7-(3,3-dimethylbutyl)-1-methyl-1H-indol-5-yl)amino)nicotinic acid] the same measures were at most 10 nM and at least 20%.
In the same order, the values of `O=C(O)c1cc(C2CC2)cnc1Nc1ccc2c(ccn2Cc2cccc(Cl)c2)c1` [Example 460, 2-((1-(3-chlorobenzyl)-1H-indol-5-yl)amino)-5-cyclopropylnicotinic acid] are at most 10 nM and at least 20%.
Turning to `Cc1cc(Nc2ncc(C3CC3)cc2C(=O)O)cc2ccn(Cc3cccc(F)c3)c12` [Example 621, 5-cyclopropyl-2-((1-(3-fluorobenzyl)-7-methyl-1H-indol-5-yl)amino)nicotinic acid], the IC50 in test [1] was at most 10 nM. In addition, in test [2], the inhibition in vivo at 1 % strength is at least 20%.
In the same order, the values of `O=C(O)c1cc(C2CC2)cnc1Nc1ccc2c(ccn2CC2CCC2)c1` [Example 133, 2-((1-(cyclobutylmethyl)-1H-indol-5-yl)amino)-5-cyclopropylnicotinic acid] are at most 10 nM and at least 20%.
In the same order, the values of `CCCCCCn1ccc2cc(Nc3ncc(C4CC4)cc3C(=O)O)ccc21` [Example 639, 5-cyclopropyl-2-((1-hexyl-1H-indol-5-yl)amino)nicotinic acid] are at most 10 nM and at least 20%.

These data come from patent publication US9624215B2, “Amine derivative or salt thereof” (TOYAMA CHEMICAL CO., LTD., priority 2012, dated 2017).
